Reference: patent US11866518B2, “Bicyclic peptide ligands specific for TSLP” (BicycleTx Limited, priority 2020, dated 2024)
*1 amine or outer side, *2 acyl side, *3 side chain or, on linkers, in order; H or OH if unused. Where a SMILES comes first, the peptide text is derived from it. Bridges are numbered along the chain shown (N, C = ends). [ ]: non-standard residue; d: D form. TATA = O=C(CC[*:1])N1CN(C(=O)CC[*:2])CN(C(=O)CC[*:3])C1; Orn = NCCC[C@H](N)C(=O)O

Biological target: TSLP (Homo sapiens, UniProt Q969D9)
Sequence (Q969D9 29-159): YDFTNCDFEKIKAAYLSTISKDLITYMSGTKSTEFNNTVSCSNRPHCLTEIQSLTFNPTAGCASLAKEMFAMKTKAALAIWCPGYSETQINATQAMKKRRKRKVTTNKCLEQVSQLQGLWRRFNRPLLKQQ
Experiment: Human TSLP Surface Plasmon Resonance (SPR) binding assay
Parameters: The resulting construct spCD33-6×HN-TEV-hTSLP(29-159)-Avi; 6xHN tag with TEV site (N, cleaved yes); made in house; host or cells: Expi293F cells
Conditions: biotinylated human TSLP immobilized on streptavidin chip; 20° C.; steady-state or kinetic 1:1 fit; read-out: hTSLP SPR Kd

Row | SMILES | Kd
1 | CC(=O)N[C@H]1CSCCC(=O)N2CN3CN(C2)C(=O)CCSC[C@H](NC(=O)[C@H](CC(=O)O)NC(=O)[C@H](CCC(=O)O)NC(=O)[C@H](CC(C)C)NC(=O)[C@H](Cc2c[nH]c4ccccc24)NC(=O)[C@H](CCC(N)=O)NC1=O)C(=O)N[C@@H](Cc1c[nH]c2ccccc12)C(=O)N[C@@H](CCCNC(=N)N)C(=O)NCC(=O)N[C@@H](Cc1cccnc1)C(=O)N[C@H](C(N)=O)CSCCC3=O [Example 158, Ac-(SEQ ID NO: 116)] | 5400 nM
2 | CC[C@H](C)[C@@H]1NC(=O)[C@H](Cc2c[nH]c3ccccc23)NC(=O)[C@@H]2CSCCC(=O)N3CN(CN(C3)C(=O)CCSC[C@@H](C(=O)N[C@@H](C)C(N)=O)NC(=O)[C@H](CC(C)C)NC(=O)[C@H]([C@@H](C)O)NC(=O)[C@H](CCCCN)NC(=O)[C@H](Cc3ccccc3)NC1=O)C(=O)CCSC[C@H](NC(=O)[C@H](C)N)C(=O)N[C@@H](CC(=O)O)C(=O)N[C@@H](CCC(=O)O)C(=O)N[C@@H](CC(C)C)C(=O)N[C@@H](CC(=O)O)C(=O)N[C@@H]([C@@H](C)CC)C(=O)N1CCC[C@H]1C(=O)N2 [Example 232, A-(SEQ ID NO: 159)-A] (H-ACDELDIPCWIFKTLCA-NH2; linker 2-9-16 via TATA; N-terminus and C-terminus assumed) | 8300 nM
3 | CC(=O)N[C@H]1CSCCC(=O)N2CN3CN(C2)C(=O)CCSC[C@H](NC(=O)[C@H](CC(=O)O)NC(=O)[C@H](CCC(=O)O)NC(=O)[C@H](CC(C)C)NC(=O)[C@H](Cc2c[nH]c4ccccc24)NC(=O)[C@H](CCC(N)=O)NC1=O)C(=O)N[C@@H](Cc1c[nH]c2ccccc12)C(=O)N[C@@H](CCCNC(=N)N)C(=O)NCC(=O)N[C@@H](Cc1c(F)c(F)c(F)c(F)c1F)C(=O)N[C@H](C(N)=O)CSCCC3=O [Example 153, Ac-(SEQ ID NO: 112)] | 2700 nM
4 | CC(=O)N[C@H]1CSCCC(=O)N2CN3CN(C2)C(=O)CCSC[C@H](NC(=O)[C@H](CC(=O)O)NC(=O)[C@H](CCC(=O)O)NC(=O)[C@H](CC(C)C)NC(=O)[C@H](Cc2c[nH]c4ccccc24)NC(=O)[C@H](CCC(N)=O)NC1=O)C(=O)N[C@@H](Cc1c[nH]c2ccccc12)C(=O)N[C@@H](CCCNC(=N)N)C(=O)NCC(=O)N[C@@H](Cc1ccc(Br)cc1)C(=O)N[C@H](C(N)=O)CSCCC3=O [Example 26, Ac-(SEQ ID NO: 24)] | 11 nM
5 | CC(C)C[C@@H]1NC(=O)[C@H](Cc2c[nH]c3ccccc23)NC(=O)[C@H](Cc2c[nH]c3ccccc23)NC(=O)[C@H]([C@@H](C)O)NC(=O)[C@H](CCC(=O)O)NC(=O)[C@@H]2CSCCC(=O)N3CN(CN(C3)C(=O)CCSC[C@H](N)C(=O)N[C@@H](CCCCN)C(=O)N[C@@H](CCC(=O)O)C(=O)N[C@@H](CC(C)C)C(=O)N[C@@H](CC(=O)O)C(=O)N3CCC[C@H]3C(=O)N[C@@H](Cc3c[nH]c4ccccc34)C(=O)N[C@@H]([C@@H](C)O)C(=O)N2)C(=O)CCSC[C@@H](C(N)=O)NC1=O [Example 179, (SEQ ID NO: 130)] (H-CKELDPWTCETWWLC-NH2; linker 1-9-15 via TATA) | 360 nM
6 | CSCC[C@H](NC(=O)[C@H](CC(=O)O)NC(=O)CNC(=O)[C@@H]1CSCCC(=O)N2CN3CN(C2)C(=O)CCSC[C@H](N)C(=O)N[C@@H](CC(=O)O)C(=O)N[C@@H](Cc2c[nH]c4ccccc24)C(=O)N[C@@H](Cc2c[nH]cn2)C(=O)N[C@@H](Cc2c[nH]c4ccccc24)C(=O)N[C@@H](CCC(=O)O)C(=O)N[C@@H](Cc2ccc(O)cc2)C(=O)N[C@@H](CC(=O)O)C(=O)N[C@@H](CSCCC3=O)C(=O)N[C@@H](Cc2c[nH]c3ccccc23)C(=O)N[C@@H](CC(C)C)C(=O)N[C@@H](CO)C(=O)N1)C(=O)N[C@@H](CO)C(=O)N[C@H](C(=O)N[C@@H](CO)C(N)=O)C(C)C [Example 222, (SEQ ID NO: 144)-GDMSVS] | 450 nM
7 | CC(=O)N[C@H]1CSCCC(=O)N2CN3CN(C2)C(=O)CCSC[C@H](NC(=O)[C@H](CC(=O)O)NC(=O)[C@H](CCC(=O)O)NC(=O)[C@H](CC(C)C)NC(=O)[C@H](Cc2c[nH]c4ccccc24)NC(=O)[C@H](CCC(N)=O)NC1=O)C(=O)N[C@@H](Cc1c[nH]c2ccccc12)C(=O)N[C@@H](CCCC[N+](C)(C)C)C(=O)NCC(=O)N[C@@H](Cc1ccccc1)C(=O)N[C@H](C(N)=O)CSCCC3=O [Example 81, Ac-(SEQ ID NO: 61)] | 100 nM
8 | CC(=O)N[C@H]1CSCCC(=O)N2CN3CN(C2)C(=O)CCSC[C@H](NC(=O)[C@H](CC(=O)O)NC(=O)[C@H](CCC(=O)O)NC(=O)[C@H](CC(C)C)NC(=O)[C@H](Cc2c[nH]c4ccccc24)NC(=O)[C@H](CCC(N)=O)NC1=O)C(=O)N[C@@H](Cc1c[nH]c2ccccc12)C(=O)N[C@@H](CCCNC(=N)N)C(=O)NCC(=O)N[C@@H](Cc1cc(F)c(F)c(F)c1)C(=O)N[C@H](C(N)=O)CSCCC3=O [Example 37, Ac-(SEQ ID NO: 33)] | 19 nM
9 | CC(C)C[C@@H]1NC(=O)[C@H](Cc2c[nH]c3ccccc23)NC(=O)[C@H](Cc2c[nH]c3ccccc23)NC(=O)[C@H](CC(=O)O)NC(=O)[C@H](CCC(=O)O)NC(=O)[C@@H]2CSCCC(=O)N3CN(CN(C3)C(=O)CCSC[C@@H](C(=O)N[C@@H](C)C(N)=O)NC1=O)C(=O)CCSC[C@H](NC(=O)[C@H](C)N)C(=O)N[C@@H](C(C)C)C(=O)N[C@@H](CC(=O)O)C(=O)N[C@@H](CC(C)C)C(=O)N[C@@H](CC(=O)O)C(=O)N1CCC[C@H]1C(=O)N[C@@H](Cc1c[nH]c3ccccc13)C(=O)N[C@@H](CO)C(=O)N2 [Example 183, A-(SEQ ID NO: 134)-A] (H-ACVDLDPWSCEDWWLCA-NH2; linker 2-10-16 via TATA; N-terminus and C-terminus assumed) | 330 nM
10 | CC(=O)N[C@H]1CSCCC(=O)N2CN3CN(C2)C(=O)CCSC[C@H](NC(=O)[C@H](CC(=O)O)NC(=O)[C@H](CCC(=O)O)NC(=O)[C@H](CC(C)C)NC(=O)[C@H](Cc2c[nH]c4ccccc24)NC(=O)[C@H](CCC(N)=O)NC1=O)C(=O)N[C@@H](Cc1c[nH]c2ccccc12)C(=O)N[C@@H](CCCNC(=N)N)C(=O)NCC(=O)N[C@@H](Cc1ccncc1)C(=O)N[C@H](C(N)=O)CSCCC3=O [Example 157, Ac-(SEQ ID NO: 115)] | 3900 nM
11 | CC(C)C[C@@H]1NC(=O)[C@H](Cc2c[nH]c3ccccc23)NC(=O)[C@@H]2CSCCC(=O)N3CN(CN(C3)C(=O)CCSC[C@@H](C(=O)N[C@@H](Cc3ccccc3)C(=O)N[C@@H](C)C(=O)N[C@@H](CCC(=O)O)C(N)=O)NC(=O)[C@@H]3CCCN3C1=O)C(=O)CCSC[C@H](NC(=O)[C@H](C)N)C(=O)N[C@@H](CC(=O)O)C(=O)N[C@@H](Cc1c[nH]c3ccccc13)C(=O)N[C@@H](CC(=O)O)C(=O)N[C@@H](Cc1c[nH]c3ccccc13)C(=O)N[C@@H](CC(=O)O)C(=O)N[C@@H](Cc1ccc(O)cc1)C(=O)N[C@@H](CC(=O)O)C(=O)N2 [Example 208, A-(SEQ ID NO: 153)-FAE] (H-ACDWDWDYDCWLPCFAE-NH2; linker 2-10-14 via TATA; N-terminus assumed) | 340 nM
12 | CC(=O)N[C@H]1CSCCC(=O)N2CN3CN(C2)C(=O)CCSC[C@H](NC(=O)[C@H](CC(=O)O)NC(=O)[C@H](CCC(=O)O)NC(=O)[C@H](CC(C)C)NC(=O)[C@H](Cc2c[nH]c4ccccc24)NC(=O)[C@H](CCC(N)=O)NC1=O)C(=O)N[C@@H](Cc1c[nH]c2ccccc12)C(=O)N[C@@H](CCCNC(=N)N)C(=O)NCC(=O)N[C@@H](Cc1cccs1)C(=O)N[C@H](C(N)=O)CSCCC3=O [Example 135, Ac-(SEQ ID NO: 96)] | 490 nM
13 | CC(C)C[C@@H]1NC(=O)[C@H](Cc2c[nH]c3ccccc23)NC(=O)[C@@H]2CSCCC(=O)N3CN(CN(C3)C(=O)CCSC[C@H](N)C(=O)N[C@@H](CC(=O)O)C(=O)N[C@@H](Cc3c[nH]c4ccccc34)C(=O)N[C@@H](Cc3c[nH]cn3)C(=O)N[C@@H](Cc3c[nH]c4ccccc34)C(=O)N[C@@H](CCC(=O)O)C(=O)N[C@@H](Cc3ccc(O)cc3)C(=O)N[C@@H](CC(=O)O)C(=O)N2)C(=O)CCSC[C@@H](C(=O)NCC(=O)N[C@@H](C)C(=O)NCC(=O)N[C@@H](CCC(=O)O)C(=O)N[C@@H](CO)C(=O)N[C@@H](CO)C(N)=O)NC(=O)[C@H](CO)NC1=O [Example 228, (SEQ ID NO: 144)-GAGESS] | 2300 nM
14 | CC(C)C[C@@H]1NC(=O)[C@H](Cc2c[nH]c3ccccc23)NC(=O)[C@@H]2CSCCC(=O)N3CN(CN(C3)C(=O)CCSC[C@@H](C(=O)N[C@@H](C)C(N)=O)NC(=O)[C@@H]3CCCN3C1=O)C(=O)CCSC[C@H](NC(=O)[C@H](C)N)C(=O)N[C@@H](CC(=O)O)C(=O)N[C@@H](Cc1c[nH]c3ccccc13)C(=O)N[C@@H](CCC(N)=O)C(=O)N[C@@H](Cc1c[nH]c3ccccc13)C(=O)N[C@@H](CO)C(=O)N[C@@H](Cc1ccc(O)cc1)C(=O)N[C@@H](CC(=O)O)C(=O)N2 [Example 196, A-(SEQ ID NO: 141)-A] (H-ACDWQWSYDCWLPCA-NH2; linker 2-10-14 via TATA; N-terminus assumed) | 6100 nM
15 | CC(C)C[C@@H]1NC(=O)[C@H](Cc2c[nH]c3ccccc23)NC(=O)[C@H](Cc2c[nH]c3ccccc23)NC(=O)[C@H]([C@@H](C)O)NC(=O)[C@H](CCC(=O)O)NC(=O)[C@@H]2CSCCC(=O)N3CN(CN(C3)C(=O)CCSC[C@H](N)C(=O)N[C@@H](CCCN)C(=O)N[C@@H](CCC(=O)O)C(=O)N[C@@H](CC(C)C)C(=O)N[C@@H](CC(=O)O)C(=O)N3CCC[C@H]3C(=O)N[C@@H](Cc3c[nH]c4ccccc34)C(=O)N[C@@H]([C@@H](C)O)C(=O)N2)C(=O)CCSC[C@@H](C(N)=O)NC1=O [Example 180, (SEQ ID NO: 131)] (H-C[Orn]ELDPWTCETWWLC-NH2; linker 1-9-15 via TATA; N-terminus and C-terminus assumed) | 300 nM
